Results taken from ChEMBL document CHEMBL5154886, “Novel Capsid Inhibitors for Treating HIV Infection” (ACS Med Chem Lett, 2022).

Test system: Human immunodeficiency virus 1
Experiment: Antiviral activity against HIV-1 IIIB infected in human MT4 cells assessed as inhibition of viral replication measured after 5 days by Celltiter-Glo assay
Assay type: functional, organism-based
Settings: Human immunodeficiency virus 1, IIIB, MT4, 120 h

Row | SMILES | EC50 [nM]
1 | Cc1nc2nc([C@H](Cc3cc(F)cc(F)c3)NC(=O)Cn3nc(C(F)(F)F)c4c3C(F)(F)[C@@H]3C[C@H]43)c(-c3ccc(Cl)c4c(NS(C)(=O)=O)nn(C)c34)cc2[nH]1 | 2.4
2 | COCc1nc2nc([C@H](Cc3cc(F)cc(F)c3)NC(=O)Cn3nc(C(F)F)c4c3C(F)(F)[C@@H]3C[C@H]43)c(-c3ccc(Cl)c4c(NS(C)(=O)=O)nn(C)c34)cc2[nH]1 | 1.5
3 | COCc1nc2nc([C@H](Cc3cc(F)cc(F)c3)NC(=O)Cn3nc(C(F)(F)F)c4c3C(F)(F)[C@@H]3C[C@H]43)c(-c3ccc(Cl)c4c(NS(C)(=O)=O)nn(C)c34)cc2[nH]1 | 2.1
4 | Cc1nc2nc([C@H](Cc3cc(F)cc(F)c3)NC(=O)Cn3nc(C(F)F)c4c3C(F)(F)[C@@H]3C[C@H]43)c(-c3ccc(Cl)c4c(NS(C)(=O)=O)nn(C)c34)cc2[nH]1 | 1.6
5 | Cn1nc(N)c2cccc(-c3cc4sc(N5CC(C)(O)C5)nc4nc3[C@H](Cc3cc(F)cc(F)c3)NC(=O)Cn3nc(C(F)F)c4c3C3CC3CC4)c21 (stereo partly specified) | 1.3
6 | Cn1cc(-c2nc3nc([C@H](Cc4cc(F)cc(F)c4)NC(=O)Cn4nc(C(F)F)c5c4C(F)(F)[C@@H]4C[C@H]54)c(-c4ccc(Cl)c5c(NS(C)(=O)=O)nn(C)c45)cc3[nH]2)cn1 | 3
